The term melting point denotes the temperature of the solid-liquid transition.

Each structure is given as a SMILES string.

Turning to `O=[N+]([O-])c1cc(CO)c(Cl)cc1F`, the melting point was 39 to 41 °C.
For `CCCC[C@H](NC(=O)[C@H](CC(C)C)NC(=O)c1ccc(F)c(F)c1F)C(=O)CSCc1ccco1`, the melting point lay within 101 to 102 °C.
To `CCN(CC(=O)O)c1ccc(OCC(C)(C)C)c(C#N)c1` belongs 78 °C; to `Cc1nc(-c2ccccc2)nc(OCC(=O)Nc2ccccc2)c1C`, 212 to 213 °C; to `CCC12CCC3C4CCC(=O)C=C4CCC3C1CCC2OC(=O)CCc1ccccc1` (stereo unspecified), 135 to 140 °C.
To `CCOC(=O)c1cnn2c1c(NC1CCCCCC1)nc1ccccc12` belongs 114 to 115 °C.
To `N#Cc1c(N2CCCC2)cc(-c2ccccc2)c2c1Cc1ccccc1-2` belongs 210 to 212 °C; to `CCOc1ccc(C2=NN(C3CCN(C(=O)CCCC(=O)O)CC3)C(=O)[C@@H]3CC=CC[C@H]23)cc1OCC`, 133 to 135 °C.
On to `COc1ccc(NS(=O)(=O)c2ccc(N3CCC(NC[C@H](O)COc4ccc(OCc5ccccc5)cc4)CC3)cc2)cc1OC`, for which the melting point fell in the range of 113 to 121 °C.
For `CC(C)NC(=O)c1cc(Cl)nc(Cl)c1NC(=O)c1cc(C(F)(F)F)nn1-c1ncccc1Cl` the value was 240 to 242 °C; for `N#CCc1cccc2c1C=CN(C(=O)c1ccccc1)C2C#N` (stereo unspecified), 66.4 to 69.7 °C; for `COc1ccc(C(=O)C2=C(O)C(=O)N(c3ccc(C)nn3)C2c2ccc(OC)cc2)cc1` (stereo unspecified), 259 °C.
On to `CC1(c2ccc(F)cc2)OC(C=Cc2ccsc2)=CC1=O` (stereo unspecified), for which the melting point was 97 to 98 °C.
For `Cc1n[nH]c(=O)n(Cc2ccccc2)c1=O` the value was 143 to 146 °C; for `CN(C)c1ccc2nc3c4ccccc4c(=Nc4ccncc4)cc-3oc2c1`, 217 to 218 °C.
For `Cc1ccc(-c2nc(C)c(-c3ccnc(Nc4ccc(N5CCOCC5)cc4)n3)s2)cn1`, the melting point was in the range of 244 to 245 °C.
To `Nc1ncc(I)c(N)n1` belongs 212 to 214 °C; to `CNC(=O)NC(=O)C(CC1CCCC1)c1ccc(S(C)(=O)=O)c(C#N)c1` (stereo unspecified), 237 to 239 °C; to `COC(C)CNS(=O)(=O)c1cc(C2(O)CCC(=O)N2C)ccc1Cl` (stereo unspecified), 124 to 126 °C.
To `CCC(=O)NS(=O)(=O)c1cccc(-c2cc(-c3nc(-c4ccc(C(F)(F)F)nc4)cc(C(F)(F)F)n3)ccn2)c1` belongs 242 °C; to `COc1ccccc1C=CC(=O)C(CC=Cc1ccccc1Cl)(CCC(=O)O)c1ccccc1` (stereo unspecified), 206 to 210 °C.
For `CN(C)c1n[nH]c(-c2ccc(Cl)cc2)c1CC(=O)O` the value was 157 to 168 °C; for `CCC1(CC)c2cc(Br)ccc2-c2ccc(Br)cc21`, 144 to 153 °C.
Consider `O=C(CS(=O)c1ccc(Cl)cc1)c1ccccc1` (stereo unspecified), for which the melting point was 129 to 130 °C.
To `COc1ccc(N2C=Cc3cc(S(N)(=O)=O)sc3S2(=O)=O)cc1` belongs 90 to 92 °C.
To `CC(=O)SC1NC(=O)C1C` (stereo unspecified) belongs 53 to 65 °C; to `COC(=O)c1cccc(C=NNc2ccc(C)cc2)c1O`, 134 to 137 °C; to `Cc1nnc2n1-c1sc(C#CCN3C(=O)c4ccccc4S3(=O)=O)cc1C(c1ccccc1Cl)=NC2`, 232 to 234 °C.
For `Cc1cc(Cl)c(S(C)(=O)=O)cc1C(=O)O` the value was 180 to 183 °C; for `FC(F)(F)c1cc(-c2ccc(Cl)cc2)nc2c(-c3cccnc3)ncn12`, 206 °C; for `COC(=O)C1=CCC2C(CCC3C(C)(C)CCCC23C)C(=O)C1` (stereo unspecified), 93 to 94 °C.
`CC(Cl)C(=O)Nc1ccccc1C(=O)CC(=O)Nc1nccs1` (stereo unspecified) had a melting point of 204 °C.
Turning to `Cc1ccc(-c2ccccc2C(=O)NC(C)C#N)cc1` (stereo unspecified), the melting point was 102 to 104 °C.
Turning to `C=C(C)Cn1c(=O)n(C)c(=O)c2cn(Cc3cccc4ccccc34)nc21`, the melting point is 187 to 189 °C.
To `COc1cc(-c2ccc(C(F)(F)F)cc2)nc(SC)n1` belongs 82 to 84 °C; to `CCc1nc(O)c2sccc2n1`, 233 to 237 °C; to `C[C@@H](OC(=O)c1cc([N+](=O)[O-])cc([N+](=O)[O-])c1)[C@@]1(c2ccc(F)cc2F)CO1`, 104 to 107 °C.
For `O=C1CCC(=O)C1C(=O)c1ccc(Cl)cc1Cl` the value was 109 to 113 °C.
For `Nc1nc(C2CC2)nc(C(Cl)(Cl)Cl)n1` the value was 111 to 114 °C; for `O=C(O)Cc1nn(CC(=O)Nc2cc(C(F)(F)F)ccc2Br)c(=O)c2ccccc12`, 200 to 202 °C.
Turning to `CCCn1nc(-c2cnc3[nH]cc(C(=O)N[C@H](C)C(=O)N4CC(C#N)C4)c3n2)c2ccc(Cl)cc21`, the melting point fell in the range of 219 to 221 °C.
To `c1nnc2c3c(c(NCCCN4CCCC4)nn12)CCCC3` belongs 169 to 171 °C; to `COc1ccc(C(=O)c2ccncc2)cc1OC`, 117 to 118 °C; to `CC(C)(CCl)C(O)C(=Cc1ccc(Cl)cc1)n1cncn1` (stereo unspecified), 170 °C.
To `COc1ccc(C(=O)Nc2ccc(-c3ccc(C(C)=O)cc3C)cc2)cc1CCCN(C)C` belongs 110 to 112 °C; to `CCCN(CCC)C(=O)Cc1ccc(O)c([N+](=O)[O-])c1`, 55 to 57 °C; to `Nc1ccc(S(=O)(=O)CCO)cc1O`, 115 to 117 °C.
To `CC(=O)N1C2=NC(C)(C)N(C)C(=O)N2c2ccccc21` belongs 159 to 162 °C.
On to `N=C(N)c1ccc(N2CC(CN3CCN(CCC(=O)O)CC3)OC2=O)cc1` (stereo unspecified), for which the melting point turned out to be 269 °C.
For `OC1(C#Cc2ccc(-c3ccccc3)cc2)CN2CCC1CC2` (stereo unspecified) the value was 217 to 218 °C; for `CCOCc1nc2c(N)nc3ccccc3c2n1CCCNS(C)(=O)=O`, 208 to 210 °C.
For `CNC(=O)CC1CN=C(c2cc3cc(Oc4ccc(CS(C)(=O)=O)nc4)cc(OC4CCOCC4)c3[nH]2)S1` (stereo unspecified) the value was 157 to 158 °C; for `NS(=O)(=O)Cc1nc(-c2ccc(Cl)c(Cl)c2)cs1`, 187 to 190 °C.
To `CC(C)(C)OC(=O)NCCCCNc1c([N+](=O)[O-])cnc2cccnc12` belongs 137 to 138 °C; to `CC(C)NC(=O)CC(CC1(C(=O)N[C@H]2CCc3ccccc3N(CC(=O)O)C2=O)CCCC1)C(=O)O` (stereo partly specified), 145 °C.
In turn, `CC1(C)OCCc2c1[nH]c1ccccc21` registered a melting point of 142 to 144 °C.
For `Cc1c(C(F)(F)F)cc(Cl)c(-n2cnc(C(F)(F)F)cc2=O)c1Cl` the value was 204 to 206 °C; for `O=C(OCc1ccccc1)c1ccc(OC(=O)c2ccc(O)cc2)cc1`, 137 to 138 °C; for `COc1cc2c3c(c1OC)C=NCC3c1ccccc1CC2` (stereo unspecified), 131 to 132 °C.
To `CCN1CC(c2ccccc2)=C(O)C1=O` belongs 192 to 195 °C.
On to `COc1ccc(NC(=O)c2cnc3ccccc3c2O)cc1`, for which the melting point is above 260 °C.
For `COc1ccc(Nc2ccccc2C(=O)N2CCCCC2)cc1` the value was 106 to 108 °C; for `Cc1ccc(N(C=C(C#N)C#N)N=C(C#N)C#N)cc1`, 168 to 169 °C; for `CN(C)Cc1cccc(OCCCNc2nc3ccccc3s2)c1`, 154 to 155 °C.
For `CCc1c(Br)sc2[nH]c(=O)c(=O)[nH]c12` the value was 295 to 297 °C.
For `Cc1oc(-c2ccco2)nc1COc1ccc(COc2nn(Cc3ccccc3)cc2C(N)=O)cc1` the value was 139 to 140 °C.
`CC(=O)N(C)c1c(I)c(NC(=O)CCCC(=O)O)c(I)c(C(=O)O)c1I` returned a melting point of 189 to 196 °C.
`CCCc1c(OCc2ccc(C=CC(=O)O)cc2)ccc(C(C)=O)c1O`: the melting point was 203 to 204 °C.
`CCOC(=O)Cc1ccc2c(c1)sc1cccc(Cl)c12` displayed a melting point of 82 to 84 °C.
Molecule `Cc1nc(C(=O)Cl)c(CCc2ccccc2)o1` returned a melting point of 38 to 39 °C.
To `Clc1nc2ccccc2cc1C=C1CCCC1` belongs 84 to 86 °C; to `CC(C)(C)C(NC(=O)c1ccc(Cl)cc1)NC(=NC#N)Nc1cc(F)ccc1F` (stereo unspecified), 196 to 198 °C; to `CCC1CCc2c(sc3cc(NC(C)=O)ccc3c2=O)C1` (stereo unspecified), 243 °C.
To `CSc1nc(=O)n(Cc2ccccc2)c2nc[nH]c12` belongs 215 to 216 °C; to `O=S(=O)(Nc1cccnc1Nc1ccccc1)c1cccc(Cl)c1`, 143 to 144 °C; to `CCCn1nc(C2CC2)c(C(=O)O)c1Cc1ccc(-c2ccccc2S(=O)(=O)NC(=O)c2ccccc2)cc1`, 230 to 232 °C.
To `CC1(C)SC(=O)C2OC=CC=C21` (stereo unspecified) belongs 42 °C.
Take `CCOC(=O)/C=C/c1ccc(OCCC(C)(C)O)cc1Oc1ncc(C(F)(F)F)cc1Cl`: the melting point is 63.5 to 66 °C.
`CCN(CC)CCOc1ccc(C(O)(CC)c2ccc(Cl)cc2)cc1` (stereo unspecified): the melting point lay in the range of 50 to 51 °C.
To `CC1(N2C(=O)c3ccccc3S2(=O)=O)CCCNC1=O` (stereo unspecified) belongs 211 to 215 °C; to `Cc1nc2cc(NC(=O)c3ccc(Cl)cc3Cl)ccc2n1C`, 275 to 277 °C; to `Cc1ccc2c(c1)NC(NC(C)C)=NS2(=O)=O`, 137 to 139 °C.
The molecule `O=C(CCC1CC1)N1C(=O)OC[C@@H]1Cc1ccccc1` registered a melting point of 42 to 43 °C.
For `Cc1nc2ccccc2nc1Oc1ccc(O)cc1` the value was 175 to 178 °C; for `Cc1c(S(=O)(=O)c2ccc(Cl)cc2)cc(C(C)C)c(O)c1C(=O)O`, 165 to 166 °C.
To `COc1cc(C(C)C)c2c(c1)S(=O)(=O)N(COC(=O)C(C)(C)C)C2=O` belongs 178 to 179 °C; to `OCC(=C(c1ccc(F)cc1)c1ccc(F)cc1)c1nnn(C(c2ccccc2)(c2ccccc2)c2ccccc2)n1`, 176 to 178 °C; to `COc1ccc2ccc(NC(=O)c3c(F)cccc3F)nc2n1`, 219 to 220 °C.
To `COC(=O)c1cc2cc(C)ccc2nn1` belongs 170 to 172 °C; to `Cc1nc2ccnn2c(=O)[nH]1`, 268 °C; to `O=C(N[C@@H](Cc1ccc(C(=O)c2ccccc2)cc1)C(=O)O)OCC1c2ccccc2-c2ccccc21`, 115 to 117 °C.

For the origin of these results see a melting point compilation (Tetko et al.; mined from patent text by program, amines drawn as free bases though some values may be those of a salt).
